Source: PMC6261997, “Synergistic enzymatic and bioorthogonal reactions for selective prodrug activation in living systems” (Nature Communications, 2018)

Legend:
[1] = Self-assembly and hydrogelation on addition of alkaline phosphatase (ALP); assay type: physicochemical
Procedure: The synthesis of the assembly precursor (NapK(Tz)YpF, 2, Fig. 2a) was straightforward (see Supplementary Methods for a detailed protocol). Because KYF was determined to be an excellent self-assembly motif in a tri-peptide census survey, we constructed our assembling molecules based on this sequence. The conjugation of a strong π–π stacking moiety, namely, a naphthalene group, to the N terminus may further enhance the self-assembly potential of this molecule. Phosphorylation on tyrosine (Y) enabled the responsiveness of this motif to phosphatase. All of these components were sequentially conjugated via typical Fmoc-based solid-phase peptide synthesis (SPPS) to yield NapKYpF (1). The capability of self-assembly and hydrogelation of 1 was confirmed by the addition of 10 U mL^−1 alkaline phosphatase (ALP) into a solution of 1 (Supplementary Fig. 1). The dephosphorylated product of 1 formed transparent hydrogels with a network of uniform nanofibres (Supplementary Fig. 2), and the critical hydrogelation concentration was 1.0 mg mL^−1. The ε-amine of Lys on 1 was conjugated with the Tz derivative Tz-COOH (2-(4-(6-methyl-1,2,4,5-tetrazin-3-yl)phenyl) acetic acid) via an NHS-mediated ester–amide exchange reaction to yield 2. […] Upon the addition of ALP (10 U mL^−1) into the solution of 2, a transparent purple hydrogel was formed within 1 h (Fig. 2b inset), and the critical hydrogelation concentration was 1.0 mg mL^−1 (Supplementary Fig. 3). Similar to the formation of a typical hydrogel, investigation by transmission electron microscopy (TEM) confirmed the existence of numerous uniform nanofibres, each with a diameter of approximately 12 nm, which was close to that of hydrogel 1 (Fig. 2b).

[2] = Stability in human serum (UPLC-MS/MS); assay type: in vitro ADME; details: 10 μM in human serum
Procedure: (Sigma, St. Louis, MO). Then, 9 µL Na125I (2.4 mCi) (Beijing Atom High Tech, Beijing, China) was added and the mixture was kept at room temperature for 1 h until the labeling ratio reached to more than 95%. For SPECT/CT imaging, a mixture of 50 mg kg-1 2 and 0.875 mg kg-1 125I labelled 2 (700 µCi) were intravenously administrated to investigate the distribution of 2/3 and 0.875 mg kg-1 125I labelled 2 (700 µCi) was administrated as a control. After anesthetization with 2% isoflurane in oxygen, SPECT and helical CT scans of the mice were performed at 2, 5, 7 and 25 h on a NanoScan SPECT/CT imaging system (Mediso, Budapest, Hungary).
UPLC-MS/MS analyses: UPLC-MS/MS metabolomic analyses were performed using a Triple Quadrupole Liquid Chromatograph Mass Spectrometer (LCMS 8050, Shimadzu) in multiple reaction-monitoring mode (MRM). Data acquisition and processing were performed using LabSolutions version 5 software. Measurements were carried out at 40°C. […]
Plasmatic stability of compound 2 and TCO-Dox: To evaluate the stability of 2 and TCO-Dox under physiologically relevant conditions, compounds were incubated in human serum and the amount of the remaining intact compound (the corresponding dephosphorylated 3 was detected as well) was determined by UPLC-MS/MS. […] After centrifugation at 1559 g for 7 min and filtration, 2 µL of the supernatant was analyzed by UPLC-MS/MS (n=5).

[3] = test system: HUVECs; test: Intracellular Tz accumulation by fluorescence liberation from TCO-CMR, HUVECs; assay type: cell-based; details: even in the presence of 500 μM 2
Procedure: Next, we tested the intracellular accumulation of Tz via EISA in an attempt to differentiate cancer cells from normal cells. First, we investigated the accumulation of Tz in HeLa cells and HUVECs over time via fluorescence liberation from TCO-CMR (Fig. 3a). Each group of cells was pre-incubated with different concentrations of 2 ranging from 100 to 500 μM for 1, 2, 4, 6, 15 or 24 h. The cells were then washed with PBS thoroughly before the addition of an excessive amount of TCO-CMR (100 μL, 50 μM), and the reaction of TCO-CMR with the intracellular accumulated Tz was allowed to proceed for up to 24 h (Supplementary Fig. 8). In this experimental setting, the total liberated fluorescence was proportional to the amount of 3 accumulated inside the cells. […] Therefore, the optimized concentration of 2 (e.g. 500 μM) and incubation time (e.g. 6 h) were selected to differentiate between cancer and normal cells according to liberated fluorescence intensity (Fig. 3c). […]
All cells were purchased from the National Infrastructure of Cell Line Resource (Beijing, China). […] After incubation for different durations (1–24 h), the cells were rinsed with PBS, and then 100 μL of 50 μM TCO-CMR (dissolved in PBS) was added for real-time detection of the fluorescence intensity of coumarin in a plate reader (Perkin Elmer).

Cc1nnc(-c2ccc(CC(=O)NCCCCC(NC(=O)Cc3ccc4ccccc4c3)C(=O)NC(Cc3ccc(OP(=O)(O)O)cc3)C(=O)NC(Cc3ccccc3)C(=O)O)cc2)nn1 (stereo not shown) [compound 2, NapK(Tz)YpF]
time to formation of hydrogel ([1]; ALP 10 U mL^−1): ≤ 1 h
critical hydrogelation concentration ([1]; after addition of 10 U mL^−1 ALP (dephosphorylated product)): 1.0 mg/mL
stability in serum/plasma [2]: partially transformed to the dephosphorylated product 3 in plasma
liberated fluorescence in HUVECs [3]: only a negligible amount of fluorescence
